From patent US9212168B2 (priority 2011, dated 2015)

Tested on: HCV genotype 1a replicon
Assay: HCV genotype 1a replicon assay (NS3 protease activity readout)
Type: cell-based, hepatitis C virus
Conditions: for Genotype 1a: HCV genotype 1a replicon; for EC50: Hepatitis C virus, read-out: Genotype 1a, HCV genotype 1a replicon
In short: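 Genotype 1a subgenomic replicon cells (APC89, Huh7.5) were treated with compound dose-responses in G418-free medium, 0.5% DMSO final, for 48 or 72 hours at 37° C. Lysate NS3/4a protease activity measured with 15 μM FRET substrate, 20 min at 37° C (ex 340/em 509 nm); EC50 by 4-parameter fit.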

Structure (SMILES) | Genotype 1a | EC50 [nM]
COC(=O)N[C@H](C(=O)N1C[C@@H](C)C[C@H]1c1nc(-c2ccc(-c3cc(Cl)c(NC(=O)c4ccc(N5CCN(C(=O)C6CC6(Cl)Cl)C[C@H]5C)nc4)cc3OC(F)(F)F)cc2)c[nH]1)C(C)C (single isomer, unassigned) [Example 1-57] | D (D represents pEC50>10 (EC50<0.1 nM)) | –
COC(=O)N[C@H](C(=O)N1C[C@@H](C)C[C@H]1c1nc(-c2ccc(-c3cc(F)c(NC(=O)c4ccc(N5CCN(C(=O)NN(C)C)C[C@H]5C)nc4)cc3OC(F)(F)F)cc2)c[nH]1)C(C)C [Example 1-95] | C (C represents pEC50 between and 9 and about 10, (EC50 between 1 nM and 0.1 nM)) | –
COC(=O)N(C)[C@H](C(=O)N1C[C@@H](C)C[C@H]1c1nc(-c2ccc(-c3cc(Cl)c(NC(=O)c4ccc(N5CCN(C(=O)C(C)(C)CO)C[C@H]5C)nc4)cc3OC(F)(F)F)cc2)c[nH]1)C(C)C [Example 13-45] | – | 0.1 to 1
COC(=O)N[C@H](C(=O)N1C[C@@H](C)C[C@H]1c1nc(-c2ccc(-c3ccc(C(=O)Nc4ccc(N5CCN(C(=O)C6CC6(Cl)Cl)C[C@H]5C)nc4)cc3OC(F)(F)F)cc2)c(Cl)[nH]1)C(C)C (stereo partly shown) [Example 4-30] | C (C represents pEC50 between and 9 and about 10, (EC50 between 1 nM and 0.1 nM)) | –
COC(=O)N[C@H](C(=O)N1C[C@@H](C)C[C@H]1c1nc(-c2ccc(-c3ccc(C(=O)Nc4ccc(N5CCN(C(=O)[C@H]6CC6(C)C)C[C@H]5C)nc4)cc3)cc2)c[nH]1)C1CCOCC1 [Example 22-2] | D (D represents pEC50>10 (EC50<0.1 nM)) | –
COC(=O)N[C@H](C(=O)N1C[C@@H](C)C[C@H]1c1nc(-c2ccc(-c3ccc(NC(=O)c4ccc(N5CCN(C(=O)[C@H]6CC6(C)C)C[C@H]5C)nc4)cc3OC(F)(F)F)cc2)c[nH]1)C(C)C [Example 1-74] | D (D represents pEC50>10 (EC50<0.1 nM)) | –
COC(=O)N[C@H](C(=O)N1C[C@H](C)C[C@H]1c1nc(-c2ccc(-c3cc(Cl)c(C(=O)Nc4ccc(N5CCN(C(=O)C(C)(C)C)C[C@H]5C)nc4)cc3OC(F)(F)F)cc2)c[nH]1)C(C)C [Example 6-26] | – | 1 to 10
COC(=O)N[C@H](C(=O)N1C[C@@H](C)C[C@H]1c1nc(-c2ccc(-c3ccc(C(=O)Nc4ccc(N5C[C@H](C)N(C(=O)C6CC6(F)F)C[C@H]5C)nc4)cc3OC(F)(F)F)cc2)c[nH]1)C(C)C (stereo partly shown) [Example 4-22] | C (C represents pEC50 between and 9 and about 10, (EC50 between 1 nM and 0.1 nM)) | –
COC(=O)N[C@H](C(=O)N1C[C@@H](C)C[C@H]1c1nc(-c2ccc(-c3cc(F)c(NC(=O)c4ccc(N5CCN(C(=O)C(C)(C)C)C[C@H]5C)nc4)cc3C(F)(F)F)cc2)c[nH]1)C(C)C [Example 1-58] | D (D represents pEC50>10 (EC50<0.1 nM)) | –
COC(=O)N[C@H](C(=O)N1C[C@@H](C)C[C@H]1c1nc(-c2ccc(-c3cc(F)c(NC(=O)c4ccc(N5CCN(C(=O)[C@H]6CC6(C)C)C[C@H]5C)nc4)cc3Cl)cc2)c[nH]1)C(C)C [Example 1-76] | D (D represents pEC50>10 (EC50<0.1 nM)) | –
COC(=O)N[C@H](C(=O)N1[C@@H]2C[C@@H]2C[C@H]1c1nc(-c2ccc(-c3cc(Cl)c(NC(=O)c4ccc(N5CCN(C(=O)C6CC6)C[C@H]5C)nc4)cc3C(F)(F)F)cc2)c[nH]1)C(C)C [Example 8-3] | – | 0.1 to 1
COC(=O)N[C@H](C(=O)N1C[C@@H](C)C[C@H]1c1nc(-c2ccc(-c3cc(Cl)c(NC(=O)c4ccc(N5CCN(C(=O)C6CC6)C[C@H]5C)nc4)cc3C(F)(F)F)cc2)c[nH]1)C(C)C [Example 1-54] | D (D represents pEC50>10 (EC50<0.1 nM)) | –
C[C@H]1C[C@@H](c2nc(-c3ccc(-c4cc(Cl)c(NC(=O)c5ccc(N6CCN(C(=O)C(C)(C)C)C[C@H]6C)nc5)cc4OC(F)(F)F)cc3)c[nH]2)N(C(=O)C(c2ccccc2)N2CCNCC2)C1 (stereo partly shown) [Example 13-3] | – | 0.1 to 1
COC(=O)N[C@H](C(=O)N1C[C@@H](O)C[C@H]1c1nc(-c2ccc(-c3cc(F)c(NC(=O)c4ccc(N5CCN(C(=O)C(C)(C)C)C[C@H]5C)nc4)cc3OC(F)(F)F)cc2)c[nH]1)C(C)C [Example 26-6] | C (C represents pEC50 between and 9 and about 10, (EC50 between 1 nM and 0.1 nM)) | –
COC(=O)N[C@H](C(=O)N1C[C@@H](N2CCOCC2)C[C@H]1c1nc(-c2ccc(-c3cc(Cl)c(NC(=O)c4ccc(N5CCN(C(=O)C(C)(C)C)C[C@H]5C)nc4)cc3OC(F)(F)F)cc2)c[nH]1)C(C)C [Example 15-5] | – | < 0.1
COC(=O)N[C@H](C(=O)N1C[C@@H](C)C[C@H]1c1nc(-c2ccc(-c3cc(F)c(NC(=O)c4ccc(N5CCN(C(=O)C6CC6)C[C@H]5C)nc4)cc3F)cc2)c[nH]1)C(C)C [Example 1-83] | C (C represents pEC50 between and 9 and about 10, (EC50 between 1 nM and 0.1 nM)) | –
COC(=O)N[C@H](C(=O)N1C[C@@H](C)C[C@H]1c1nc(-c2ccc(-c3cc(Cl)c(C(=O)Nc4ccc(N5CCN(C(=O)C(C)(C)C)C[C@H]5C)nc4)cc3OC(F)(F)F)cc2)c(Cl)[nH]1)C(C)C [Example 4-47] | C (C represents pEC50 between and 9 and about 10, (EC50 between 1 nM and 0.1 nM)) | –
COC(=O)N[C@H](C(=O)N1C[C@@H](C)C[C@H]1c1nc(-c2ccc(-c3cc(Cl)c(NC(=O)c4ccc(N5CCN(C(=O)[C@@H]6CCN6C(C)C)C[C@H]5C)nc4)cc3OC(F)(F)F)cc2)c[nH]1)C(C)C [Example 1-85] | B (B represents pEC50 between 8 and 9 (EC50 between 1 and 10 nM)) | –
COC(=O)N[C@H](C(=O)N1C[C@@H](N(C)C)C[C@H]1c1nc(-c2ccc(-c3ccc(C(=O)Nc4ccc(N5CCN(C(=O)C(C)(C)C)C[C@H]5C)nc4)cc3OC(F)(F)F)cc2)c(Cl)[nH]1)C(C)C [Example 10-3] | – | < 0.1
CNC(=O)N1CCN(c2ccc(C(=O)Nc3cc(OC(F)(F)F)c(-c4ccc(-c5c[nH]c([C@@H]6C[C@H](OC)CN6C(=O)[C@@H](NC(=O)OC)C6CCOCC6)n5)cc4)cc3Cl)cn2)[C@H](C)C1 [Example 28-13] | D (D represents pEC50>10 (EC50<0.1 nM)) | –
COC(=O)N[C@H](C(=O)N1C[C@@H](C)C[C@H]1c1nc(-c2ccc(-c3ccc(C(=O)Nc4ccc(N5CCN(C(=O)C(C)(C)C)C[C@H]5C)nc4)cc3OC(F)F)cc2)c[nH]1)C1CCOCC1 [Example 25-5] | D (D represents pEC50>10 (EC50<0.1 nM)) | –
COC(=O)N[C@H](C(=O)N1C[C@@H](C)C[C@H]1c1nc(-c2ccc(-c3cc(Cl)c(NC(=O)c4ccc(N5CCN(C(=O)C(C)(C)C)C[C@H]5C)nc4)cc3OC(F)(F)F)cc2)c[nH]1)[C@H](C)O [Example 13-6] | – | < 0.1
COC(=O)NC(C(=O)N1C[C@@H](C)C[C@H]1c1nc(-c2ccc(-c3cc(Cl)c(NC(=O)c4ccc(N5CCN(C(=O)C(C)(C)C)C[C@H]5C)nc4)cc3OC(F)(F)F)cc2)c[nH]1)C1COC1 (stereo partly shown) [Example 13-44] | – | 0.1 to 1
COC(=O)N[C@H](C(=O)N1C[C@@H](C)C[C@H]1c1nc(-c2ccc(-c3cc(Cl)c(NC(=O)c4ccc(N5CCN(C(=O)NN(C)C)C[C@H]5C)nc4)cc3OC(F)(F)F)cc2)c[nH]1)C(C)C [Example 1-94] | D (D represents pEC50>10 (EC50<0.1 nM)) | –
CCO[C@H]1C[C@@H](c2nc(-c3ccc(-c4cc(Cl)c(C(=O)Nc5ccc(N6CCN(C(=O)C(C)(C)C)C[C@H]6C)nc5)cc4OC(F)(F)F)cc3)c[nH]2)N(C(=O)[C@@H](NC(=O)OC)C(C)C)C1 [Example 6-27] | – | 0.1 to 1
